Like-named read-outs stand apart in the source and are kept apart here. *1 amine or outer side, *2 acyl side, *3 side chain or, on linkers, in order; H or OH if unused. Where a SMILES comes first, the peptide text is derived from it. Bridges are numbered along the chain shown (N, C = ends). [ ]: non-standard residue; d: D form. Trp(2-yl) = O=C([C@H](Cc1c([*:3])[nH]c2ccccc12)N[*:1])[*:2]; Leu(4R-OH,5-OH) = C[C@](O)(CO)C[C@H](N)C(=O)O; dAsp(3S-OH) = N[C@@H](C(=O)O)[C@H](O)C(=O)O; cisHyp = O=C(O)[C@@H]1C[C@H](O)CN1
What was measured:
[1] = cited from earlier work
Description: The difference in detectable time in the urine can be explained by the low level of internal exposure (amatoxins in the blood). […] The daily amounts of peptide toxins excreted in urine in beagles without biliary drainage(mg). Time after α-Amanitin β-Amanitin Phallacidin ingestion 20 mg/kg 60 mg/kg 20 mg/kg 60 mg/kg 20 mg/kg 60 mg/kg group group group group group group 0-1d 0.0379 0.0593 0.0156 0.0251 0.0035 0.0088 (97.9%) (92.8%) (99.9%) (94.7%) (94.2%) (76%) 1-2d 0.0388 0.0618 0.01567 0.0255 0.0037 0.0110 (99.995%) (97.5%) (100%) (96.2%) (100%) (93%) 2-3d 0.0002 0.0626 0 0.0260 0 0.0115 (100%) (99.4%) (100%) (98.2%) (100%) (97.3%) 3-4d 0 0.063 ...

[2] = Peptide toxins in the blood / toxicokinetics in beagles with biliary drainage; assay type: in vivo, beagle dogs
Description: The study was approved by National Institute of Occupational Health and Poison Control review board for animal experiments. Twenty-four male beagles (age, 8–10 months; weight, 10 ± 1 kg) were obtained from Beijing Institute of Xieerxin Biology Resource (Beijing, China). They were randomly divided into four groups of six animals each: control, biliary drainage, and 20 and 60 mg/kg with biliary drainage groups. The biliary drainage operation was conducted in all groups barring the control group. The dogs were dressed in homemade underwear, coats, and Elizabeth circles for a week to ensure pre-experimental acclimatization (Figure S8a–c). After determining the baseline values for biochemical indicators, the dogs were fasted for 24 h but received water ad libitum. They were anesthetized by intravenous administration of pentobarbital sodium (3%, 1 mL/kg) during the surgery. A temperature of 38–39 °C was maintained with a warming mat. After skin preservation and sterilization, the abdominal cavity was opened through the central abdomen. The abdomen was explored and blunt dissection of the common bile duct was performed (Figure S8d). The common bile duct and its branches were ligated from the intestinal side. A 7.0-Fr drainage catheter (COOK, Bloomington, IN, USA) was percutaneously inserted into the gallbladder, and a medical drainage bag was connected to the drainage catheter coming out of the abdominal cavity. Each opened layer, including the peritoneum, abdominal wall muscle, and skin, was closed with suture. The operative incision was protected with sterile gauze and a bandage, and the dogs were dressed in homemade underwear, coats, and Elizabeth circles. The drainage bag was placed in the pocket of the coat (Figure S8e). After the anesthetic wore off, the dogs were placed in cages, and food and water were provided ad libitum. The operative incision was sterilized with iodophor twice a day until stitches were removed six days after surgery. The drainage bag was replaced every day. On the eighth day after surgery, the 20 and 60 mg/kg with biliary drainage groups were orally administered a lyophilized powder of Amanita exitialis in starch capsules. In control and bile drainage group, the beagle dogs were fed with empty capsules. Immediately after dosing, the animals were placed in their cages, and food and water were provided ad libitum. Dogs were sacrificed with an overdose of sodium pentobarbital at the end of the experiment. All procedures were performed according to the ethical standards of the National Institutes of Health Guide for Animal Welfare and approved by the Institutional Animal Care and Use Committee (EAWE-2017-005).
Peptide toxins in blood and urine samples were analyzed as described previously. Bile samples from Days 0–1, Days 1–2, Days 2–3, and Days 3–4 were collected and stored in medical drainage bags and the bile volume was recorded. Plasma and urine samples were stored at 2–8 °C until analysis for peptide toxins.
UPLC and MS/MS parameters were as described in our previous study. The limit of detection and limit of quantitation of each toxin in the bile were 0.03 mg/kg and 0.5 mg/kg, respectively.
Toxicokinetic parameters were described in our previous study. Measurement data are reported as mean ± standard deviation values and enumeration data are reported as percentage (%). […] SPSS 22.0 (IBM Corporation, Armonk, NY, USA, 2015) was used for statistical analysis. The criterion for statistical significance was p ≤ 0.05. Except for the biliary drainage operation, the animals and methods in our present study are in accordance with our previously published study. Thus, by directly comparing the data from this study with those from our published studies on Amanita exitialis-exposed beagles without biliary drainage, we can evaluate the impact of biliary drainage on the toxicity and toxicokinetics of Amanita exitialis in beagles.

[3] = 60 mg/kg Amanita exitialis oral, biliary drainage, plasma, mean ± SD

## CC(C)[C@@H]1NC(=O)[C@H](C[C@@](C)(O)CO)NC(=O)[C@@H]2Cc3c([nH]c4ccccc34)SC[C@H](NC(=O)[C@@H]([C@H](O)C(=O)O)NC1=O)C(=O)N1C[C@@H](O)C[C@H]1C(=O)N[C@@H](C)C(=O)N2 [phallacidin] (cyclo(A[Trp(2-yl)][Leu(4R-OH,5-OH)]V[dAsp(3S-OH)]C[cisHyp]); thioether 2-6)
[1]; 0-1d, 20 mg/kg group
  daily amount excreted in urine, without biliary drainage: 0.0035 mg
  percentage in parentheses, urine, without biliary drainage: 94.2%
[1]; 0-1d, 60 mg/kg group
  daily amount excreted in urine, without biliary drainage: 0.0088 mg
  percentage in parentheses, urine, without biliary drainage: 76%
[1]; 20 mg/kg group
  Accumulative amount excreted in urine, without biliary drainage: 0.0037 mg
  percentage in parentheses, Accumulative amount, urine, without biliary drainage: 100%
[1]; 60 mg/kg group
  percentage in parentheses, Accumulative amount, urine, without biliary drainage: 100%
[1]; 1-2d, 20 mg/kg group
  percentage in parentheses, urine, without biliary drainage: 100%
[1]; 1-2d, 60 mg/kg group
  daily amount excreted in urine, without biliary drainage: 0.0110 mg
  percentage in parentheses, urine, without biliary drainage: 93%
[1]; 2-3d, 20 mg/kg group
  daily amount excreted in urine, without biliary drainage: 0 mg
  percentage in parentheses, urine, without biliary drainage: 100%
[1]; 2-3d, 60 mg/kg group
  daily amount excreted in urine, without biliary drainage: 0.0115 mg
  percentage in parentheses, urine, without biliary drainage: 97.3%
[1]; 3-4d, 20 mg/kg group
  daily amount excreted in urine, without biliary drainage: 0 mg
  percentage in parentheses, urine, without biliary drainage: 100%
[1]; 3-4d, 60 mg/kg group
  daily amount excreted in urine, without biliary drainage: 0.0118 mg
  percentage in parentheses, urine, without biliary drainage: 100%
[2]; 0 h after ingestion, 20 mg/kg with biliary drainage group
  detection rate of peptide toxins in blood: 0%
[2]; 0 h after ingestion, 60 mg/kg with biliary drainage group
  detection rate of peptide toxins in blood: 0%
[2]; 60 mg/kg Amanita exitialis oral, biliary drainage, plasma, UPLC-ESI-MS/MS, mean ± SD
  T1/2: 0.62 ± 0.32 ^b,* h
[2]; [3]
  AUC (0–∞): 2.08 ± 2.06 ^b,* µg/L × h
  CL/F: 1.1 ± 0.86 ^b,* L/h/kg
  Cmax: 0.85 ± 0.37 ^b,* µg/L
  Dose normalized AUC (0–∞): 60.5 ± 60.2 ^b,*
  Dose normalized Cmax: 24.8 ± 10.8 ^b,*
  MRT (0–∞): 1.95 ± 0.73 ^b,* h
  Tmax: 1.38 ± 0.25 h
[2]; 0.25 h after ingestion, 20 mg/kg with biliary drainage group
  detection rate of peptide toxins in blood: 0%
[2]; 0.25 h after ingestion, 60 mg/kg with biliary drainage group
  detection rate of peptide toxins in blood: 33%
[2]; 0.5 h after ingestion, 20 mg/kg with biliary drainage group
  detection rate of peptide toxins in blood: 0%
[2]; 0.5 h after ingestion, 60 mg/kg with biliary drainage group
  detection rate of peptide toxins in blood: 33%
[2]; 1 h after ingestion, 20 mg/kg with biliary drainage group
  detection rate of peptide toxins in blood: 50%
[2]; 1 h after ingestion, 60 mg/kg with biliary drainage group
  detection rate of peptide toxins in blood: 100%
[2]; 1.5 h after ingestion, 20 mg/kg with biliary drainage group
  detection rate of peptide toxins in blood: 66%
[2]; 1.5 h after ingestion, 60 mg/kg with biliary drainage group
  detection rate of peptide toxins in blood: 100%
[2]; 2 h after ingestion, 20 mg/kg with biliary drainage group
  detection rate of peptide toxins in blood: 33%
[2]; 2 h after ingestion, 60 mg/kg with biliary drainage group
  detection rate of peptide toxins in blood: 100%
[2]; 3 h after ingestion, 20 mg/kg with biliary drainage group
  detection rate of peptide toxins in blood: 33%
[2]; 3 h after ingestion, 60 mg/kg with biliary drainage group
  detection rate of peptide toxins in blood: 50%
[2]; 4 h after ingestion, 20 mg/kg with biliary drainage group
  detection rate of peptide toxins in blood: 17%
[2]; 4 h after ingestion, 60 mg/kg with biliary drainage group
  detection rate of peptide toxins in blood: 50%
[2]; 5 h after ingestion, 20 mg/kg with biliary drainage group
  detection rate of peptide toxins in blood: 0%
[2]; 5 h after ingestion, 60 mg/kg with biliary drainage group
  detection rate of peptide toxins in blood: 33%
[2]; 6 h after ingestion, 20 mg/kg with biliary drainage group
  detection rate of peptide toxins in blood: 0%
[2]; 6 h after ingestion, 60 mg/kg with biliary drainage group
  detection rate of peptide toxins in blood: 17%
[2]; 8 h after ingestion, 20 mg/kg with biliary drainage group
  detection rate of peptide toxins in blood: 0%
[2]; 8 h after ingestion, 60 mg/kg with biliary drainage group
  detection rate of peptide toxins in blood: 0%
[2]; 10 h after ingestion, 20 mg/kg with biliary drainage group
  detection rate of peptide toxins in blood: 0%
[2]; 10 h after ingestion, 60 mg/kg with biliary drainage group
  detection rate of peptide toxins in blood: 0%
[2]; 12 h after ingestion, 20 mg/kg with biliary drainage group
  detection rate of peptide toxins in blood: 0%
[2]; 12 h after ingestion, 60 mg/kg with biliary drainage group
  detection rate of peptide toxins in blood: 0%
[2]; 24 h after ingestion, 20 mg/kg with biliary drainage group
  detection rate of peptide toxins in blood: 0%
[2]; 24 h after ingestion, 60 mg/kg with biliary drainage group
  detection rate of peptide toxins in blood: 0%
[2]; 36 h after ingestion, 20 mg/kg with biliary drainage group
  detection rate of peptide toxins in blood: 0%
[2]; 36 h after ingestion, 60 mg/kg with biliary drainage group
  detection rate of peptide toxins in blood: 0%
[2]; 48 h after ingestion, 20 mg/kg with biliary drainage group
  detection rate of peptide toxins in blood: 0%
[2]; 48 h after ingestion, 60 mg/kg with biliary drainage group
  detection rate of peptide toxins in blood: 0%
[2]; beagles with biliary drainage, oral Amanita exitialis
  time at which toxins were detected in plasma after ingestion: 30 min
[2]; male, beagle, dog, 60 mg/kg Amanita exitialis oral, biliary drainage, plasma, mean ± SD, read-out: Vz/F
  Vd/F: 1.77 ± 0.57 L/kg
